Measurements from patent publication USRE45173E1, “Inhibitors of CYP 17” (Novartis AG, priority 2009, dated 2014).
Like-named read-outs stand apart in the source and are kept apart here.

Molecular target: recombinant human CYP17 enzyme (Homo sapiens (Human), UniProt P05093)
Assay: Cytochrome P450, 17-20 lyase (CYP17-lyase) assay, tritiated acetic acid release from 17-α-hydroxy pregnenolone [21-3H]
Assay type: biochemical
Conditions: human CYP17, substrate 0.25 μM
Description: Assay method was adopted from a published protocol with some modifications to suit our requirements (Dmitry N Grigoryev et al, Analytical Biochemistry, (1999) 267, 319-330). […] Chloroform extraction removes the radioactive steroids and acetic acid is taken into aqueous layer. The tritiated acetic acid released in the assay thus extracted is quantified to determine the enzyme activity. […] The purified cell membrane preparations were used as the source for Human CYP17 enzyme. […] O, Nijar, et al., J Med Chem, (1998) 41, 902-912). […] Km for this substrate was determined by monitoring the tritiated acetic acid release as a function of substrate concentration. […] For the Km determination, the data was fit to a hyperbolic equation (Graphpad Prism® software IV). […] (Dmitry N. Grigoryev et al, Analytical Biochemistry (1999) 267, 319-330) […] NADPH is used at a final concentration of 4.2 mM. Total reaction volume was made up to 50 μL with 50 mM Phosphate buffer pH 7.5. The reaction mixture was incubated at room temperature for 90 minutes with gentle shaking. The reaction was stopped by the addition of 100 μL of buffer. 500 μL of 5% freshly prepared activated charcoal was added to the solution and mixed well by vortexing. The samples were centrifuged at 17568×g for 5 minutes. (14000 rpm). The supernatant was carefully transferred to fresh tube and 1.3 mL of scintillation fluid was added, mixed by vortexing. The radioactivity was measured in a 1450 MicroBeta TriLux™ scintillation counter from Wallac-Perkin Elmer®, USA. The measurements were carried out in 2.0 mL Eppendorforf™ tubes. […] The amount of tritiated acetic acid released is proportional to the lyase activity. Percent lyase activity in presence of inhibitor was calculated using the formula given below. […] Enzyme reaction in presence of inhibitor. • Positive control: […] For IC50 determination, the % inhibition was plotted as a function of inhibitor concentration. The data was fitted to sigmoidal equation using Graphpad Prism® software IV to generate IC50 values.

[1] = read-out: Lyase IC 50 nM Human/Rat (Human)
[2] = read-out: Lyase IC 50 Human/Rat (Human)

recombinant human CYP17 enzyme, sequence (P05093 whole entry): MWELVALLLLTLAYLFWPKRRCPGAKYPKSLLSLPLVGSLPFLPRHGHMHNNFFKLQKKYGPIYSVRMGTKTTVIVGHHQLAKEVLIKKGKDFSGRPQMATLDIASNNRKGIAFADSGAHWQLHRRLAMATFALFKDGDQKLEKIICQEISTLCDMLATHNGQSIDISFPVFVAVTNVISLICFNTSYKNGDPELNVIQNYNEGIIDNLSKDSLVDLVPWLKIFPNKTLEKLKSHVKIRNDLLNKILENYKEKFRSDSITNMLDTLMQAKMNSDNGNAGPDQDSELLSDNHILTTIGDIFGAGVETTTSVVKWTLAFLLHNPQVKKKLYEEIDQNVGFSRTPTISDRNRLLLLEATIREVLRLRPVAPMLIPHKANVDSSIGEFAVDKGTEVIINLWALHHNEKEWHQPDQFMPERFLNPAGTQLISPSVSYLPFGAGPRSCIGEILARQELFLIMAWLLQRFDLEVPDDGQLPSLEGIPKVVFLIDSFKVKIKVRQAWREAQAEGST

Row | SMILES | IC50 [1] [nM] | IC50 [2] [nM]
1 | Cc1ccncc1N1CCN(c2ccc3c(N)nn(C)c3c2)C1=O [Example 143A, 1-(3-Amino-1-methyl-1H-indazol-6-yl)-3-(4-methyl-pyridin-3-yl)-imidazolidin-2-one] | 116 | –
2 | Cc1ccncc1N1CCN(c2ccc3onc(C)c3c2)C1=O [Example 101A, 1-(3-Methyl-benzo[d]isoxazol-5-yl)-3-(4-methyl-pyridin-3-yl)-imidazolidin-2-one] | 46 | –
3 | Cc1ccncc1N1CCN(c2ccc3c(c2)OCCO3)C1=O [Example 49A, 1-(2,3-Dihydro-benzo[1,4]dioxin-6-yl)-3-(4-methyl-pyridin-3-yl)-imidazolidin-2-one] | 30 | –
4 | N#Cc1ccncc1N1CCN(c2ccc3ncsc3c2)C1=O [Example 129A] | 202 | –
5 | Cc1ccncc1N1CCN(c2ccccc2)C1=O [Example 69A, 1-(4-Methyl-pyridin-3-yl)-3-phenyl-imidazolidin-2-one] | 34 | –
6 | Cc1ccncc1N1CCN(c2ccc3nccnc3c2)C1=O [Example 77A, 1-(4-Methyl-pyridin-3-yl)-3-quinoxalin-6-yl-imidazolidin-2-one] | 195 | –
7 | Cc1ccncc1N1CCN(c2ccc3nccn3c2)C1=O [Example 94A, 1-Imidazo[1,2-a]pyridin-6-yl-3-(4-methyl-pyridin-3-yl)-imidazolidin-2-one] | 110 | –
8 | CC(=O)Nc1cc(N2CCN(c3cnccc3C)C2=O)ccn1 [Example 96A] | – | > 10000
9 | Cc1ccncc1N1CCN(c2ccc(F)c(F)c2)C1=O [Example 45A, 1-(3,4-Difluoro-phenyl)-3-(4-methyl-pyridin-3-yl)-imidazolidin-2-one] | 27 | –
10 | O=C1N(c2ccc3ncsc3c2)CCN1c1cnccc1C(F)F [Example 125A, 1-Benzothiazol-6-yl-3-(4-difluoromethyl-pyridin-3-yl)-imidazolidin-2-one] | 17 | –
11 | Cc1ccncc1N1CCN(c2ccc3[nH][nH]c(=O)c3c2)C1=O [Example 117A, 5-[3-(4-Methyl-pyridin-3-yl)-2-oxo-imidazolidin-1-yl]-1,2-dihydro-indazol-3-one] | 94 | –
12 | Cc1ccncc1N1CCN(c2ccc3cccnc3c2)C1=O [Example 162A, 1-(4-methylpyridin-3-yl)-3-(quinolin-7-yl)imidazolidin-2-one] | 317 | –
13 | Cc1ccncc1N1CCN(c2ccc3[nH]cnc3c2)C1=O [Example 108A, 1-(1H-Benzoimidazol-5-yl)-3-(4-methyl-pyridin-3-yl)-imidazolidin-2-one] | 363 | –
14 | Cc1ccncc1N1CCN(c2cccc3ccccc23)C1=O [Example 133A, 1-(4-Methyl-pyridin-3-yl)-3-naphthalen-1-O-imidazolidin-2-one] | 1970 | –
15 | CCc1ccncc1N1CCN(c2ccc3ncsc3c2)C1=O [Example 159A, 1-(benzo[d]thiazol-6-yl)-3-(4-ethylpyridin-3-yl)imidazolidin-2-one] | 3.4 | –
16 | CC(=O)Nc1ccncc1N1CCN(c2ccc3ncsc3c2)C1=O [Example 150A, N-[3-(3-Benzothiazol-6-yl-2-oxo-imidazolidin-1-yl)-pyridin-4-yl]-acetamide] | 496 | –
17 | Cc1ccncc1N1CCN(c2cc3cnccc3s2)C1=O [Example 120A, 1-(4-Methyl-pyridin-3-yl)-3-thieno[3,2-c]pyridin-2-yl-imidazolidin-2-one] | – | 4000
18 | Cc1ccc(N2CCN(c3ccc4ncsc4c3)C2=O)cn1 [Example 127A, 1-Benzothiazol-6-yl-3-(6-methyl-pyridin-3-yl)-imidazolidin-2-one] | – | > 10000
19 | Cc1ccncc1N1CCN(c2ccc3[nH]nc(N)c3c2)C1=O [Example 118A, 1-(3-Amino-1H-indazol-5-yl)-3-(4-methyl-pyridin-3-yl)-imidazolidin-2-one] | 17 | –
20 | Cc1ccncc1N1CCN(c2csc3ccncc23)C1=O [Example 136A, 1-(4-Methyl-pyridin-3-yl)-3-thieno[3,2-c]pyridin-3-yl-imidazolidin-2-one] | 500 | –
